Series [1] concerns L1210/CPA cells. Description: L1210/CPA cell proliferation ([3H]-thymidine incorporation). The format is cell-based, Murine. Here is the method: (§1) Murine lymphocytic leukemia cell lines, L1210/CPA and L1210/0 (als. known as Le/CPA and Le/0) were kindly provided by Dr. F. Struck, Southern Research Institute, Birmingham, AL. Cells were grown in RPMI-1640, supplemented with 10% horse serum, 100 units/ml penicillin and 100 µg/ml streptomycin. The cultures were incubated at 37°C in a humidified atmosphere with 5% CO₂ in air. Bone marrow cells were flushed from femurs of mice with RPMI-1640, using a tuberculin syringe fitted with a 25 gauge meedle. For spleen cells, spleens were removed and passed through a fine wire mesh to get a single homogenous cell suspension. In either case, cells were centrifuged, washed twice and resuspended in the drug exposure medium (see below). Cell viability was determined by trypan blue exclusion and the cell suspension was diluted to the desired concentration.
(§2) Murine leukemic cells and bone marrow/spleen cells were treated with SDA (1 x 10^-6 M to 5 x 10⁻⁵ M) in RPMI-1640 or PBS based solution. Wherever mentioned, cells were pretreated with DEAB (10-30 µM) for 30-60 min at 37°C and then exposed to SDA.
(§3) For [³H]-thymidine incorporation, drug or vehicle treated bone marrow or spleen cells were plated in RPMI-1640, containing 10% fetal bovine serum, 10 µM β-mercaptoethanol, 25 mM HEPES and 2 mM glutamine. Con-A (4 µg/ml and […]) was used as mitogens for bone marrow and spleen cells. […]
For orientation: Dividing cells build labelled thymidine or BrdU into new DNA.

Series [2] relates to Swiss Webster mice. Put plainly: Acute toxicity, intraperitoneal. The format is in vivo. As to the method: Two pairs of Swiss Webster mice were injected intraperitoneally at 200 mg and 400 mg/kg respectively and observed for toxic effects. Control groups were injected with control preparation. Two weeks after dosing, animals were necropsied and organs were examined for abnormalities.
Two pairs of Swiss Webster mice were injected intraperitoneally at 200 mg and 400 mg/kg for toxic effects.

The conditions of series [3]: intraperitoneally; Israel et al.; cited from earlier work.
For series [4], the system named is C3H mice. Put plainly: Skin graft transplant (Balb/c skin onto C3H mice). The format is in vivo.
Protocol: Spermine dialdehyde was administered s.c, right after transplantation and continued throughout the study. Cyclosporin A (CsA) was run along as a positive control.
Series [5] has as its system L1210/0 cells. Put plainly: L1210/0 cell proliferation ([3H]-thymidine incorporation). In kind it is cell-based, Murine. As to the method:
as §1, §2
(§4) For [³H]-thymidine incorporation, drug or vehicle treated bone marrow or spleen cells were plated in RPMI-1640, containing 10% fetal bovine serum, 10 µM β-mercaptoethanol, 25 mM HEPES and 2 mM glutamine. Con-A (4 µg/ml and […]) was used as mitogens for bone marrow and spleen cells. Three days later, [³H]-thymidine (0.2 µCi/well) was added and cells were harvested after 12-18 hrs. L1210/CPA and L1210/0 cells (0.1 - 1 x 10⁵ cells/well were plated in RPMI-1640 containing 10% horse serum. [³H]-thymidine was added after 24 hrs and cells were filtered on GF/B filter paper for scintillation counting.

Series [6] relates to splenic T cell. Put plainly: Concanavalin A-stimulated splenic T cell proliferation ([3H]-thymidine incorporation). The format is cell-based, Mouse. Here is the method:
Splenic cells were treated with various concentrations of SDA or an analogue for 30 min. at 37°C. Cells were washed and cultured in the presence of Concanavalin A for 3 days. [³H] Thymidine 0.1µCi/well was added and cells were harvested after 18-24 hrs.
(§5) Mouse spleen cells were cultured for 3 days in flat bottom microtiter relates at 10⁵ cells per well in the presence of […] of Con A. 3H-thymidine (0.1 microcurie/well) was added for the last 4-6 hours of the culture period. Cells were harvested as described above.
as §4

Series [7] has as its system Murine bone marrow cells. Description: Con A driven mouse bone marrow cell proliferation ([3H]-thymidine incorporation). The format is cell-based. As to the method:
Mouse spleen and bone marrow cells were incubated separately with different concentrations of spermine dialdehyde in vitro for 1 hour. Cells were washed extensively and set up in a Con A stimulated proliferation assay. A graph is depicted wherein percentage response is plotted as a function of various concentrations of spermine dialdehyde.
Mice were sacrificed by cervical dislocation and disinfected by dipping in a Dettol solution. Bone marrow cells were obtained from suitable long bones by flushing with a […] needle. Cells were then washed three times with RPMI before use.
as §5
Mouse bone marrow and spleen cells were each incubated for 1 hour with different concentrations of spermine dialdehyde. Cells were then washed 3 times with RPMI and set up in a Con A driven proliferation assay. Results are depicted in Figure 2.
as §3

In series [8] the test system is C57BL mice. Description: In vivo generation of cytotoxic T cells in mice. Conditions: Figure 5. As to the method:
C57BL mice were injected i.p. daily with different doses of spermine dialdehyde. On day 2, they also received 107 DBA spleen cells. Seven days later, animals were sacrificed and percentage of cytotoxic T cells (measured by % specific lipes generated in the spleen was calculated and plotted as a function of concentration of spermine dialdehyde.
In vivo generation of cytotoxic T cells was performed according to the method described by Faanes et al., Clin. Esp. Immunol., Vol. 27 pp. 502-506 (1977). C57BL mice were arranged into groups of 10 and injected IP with different doses of spermine dialdehyde or control preparation. Two days after first injection, they received i.p. injection of 10⁷ DBA spleen cells which were prepared as described previously. Ten days after cell injection, C57 mice were sacrificed by cervical dislocation and cytotoxic T cells generated in the spleen were quantified by measuring the ability of those cells to lyse 51Cr labelled PB15 target cells (a mastocytoma, cells of DBA origin or Con A stimulated DBA spleen blasts). P815 cells or blasts were suspended at 10⁷ cells/ml and incubated with 200 MCi of 51Cr for 1 hour at 37°C. […] After incubation, 100 Ml of supernatant was removed and counted in the gamma counter. The percentage of cytotoxic T cells was calculated: [formula] […]

As to `O=CCCNCCCCNCCC=O` [SDA, NN′-Bis-(3-propionaldehyde)-1-4-diaminobutane], the “effect of DEAB pretreatment on cytotoxicity of SDA” value in series [1] (DEAB (20 µM) pretreatment) is reported as “potentiated the cytotoxicitty of SDA”; in series [5] (DEAB (20 µM) pretreatment), “little or no effect”. Moreover, the IC50 was found to be 8.3 µM in series [1] (Mus musculus, L1210, [³H]-thymidine incorporation, read-out: mean IC₅₀); 4.66 µM in series [5] (Mus musculus, L1210/0, [³H]-thymidine incorporation, read-out: mean IC₅₀); 0.7 µM in series [6] (Mus musculus, T-cell, cells treated 30 min at 37°C, washed, cultured with Concanavalin A for 3 days, Figure 8, read-out: IC₅₀). Further, the “acute signs (squinting and writhing)” value in series [2] (200 mg and 400 mg/kg intraperitoneally) was “acutely irritating”. Also, the toxic effects entry in series [2] (200 mg/kg intraperitoneally) is “no other toxic effect”; in series [2] (400 mg/kg intraperitoneally), “abdominal or whole body edema for five days”. For the same molecule, the necropsy findings result in series [2] (400 mg/kg, 14 days after injection) was “a mildly distended abdomen and scab formation at the injection site”. For the same molecule, in series [2] (mouse, in vivo, ip), the “lethal dose (not lethal up to)” value is on record as above 400 mg/kg. In addition, the LD100 in series [3] was 40 mg/kg. Moreover, the skin graft survival result in series [4] (SDA s.c., all 3 doses, especially 10 mg/kg and 20 mg/kg, Figure 6) is recorded as “prolonged skin graft survival”. In addition, in series [4] (mouse, in vivo), the “efficacy in skin graft experiments compared with CsA” value is listed as “more effective than a comparable dose of CsA”. In series [5] (proliferation assays), the “sensitivity of L1210/0 cells relative to L1210/CPA cells” value was found to be 2 fold. The “susceptibility of spleen cells to suppression compared with bone marrow cells” value in series [6] (1 hour incubation, Figure 2) is “much more susceptible to suppression”. Further, the “effect of addition of DEAB on the potency of SDA” value in series [6] (DEAB (20 µM)) is “no significant effect”. For the same molecule, the IC100 in series [6] (Mus musculus, T-cell, read-out: SDA treatment that abolished Con A-induced murine spleen cell proliferation) lay in the range of 8 to 12 µM. Besides, in series [7] (DEAB (30 µM) pretreatment), the “[³H]-thymidine incorporation after DEAB pretreatment” value was “higher susceptibility at lower concentrations of SDA”. Moreover, the “[³H]-thymidine incorporation” value in series [7] (treated in PBS based medium, cultured 3 days) is “dose dependent decrease”. Also, the ED (maximum) in series [8] (Mus musculus, T-cell, ip, read-out: dose that appeared to attain maximum suppression of cytotoxic T cell generation) amounted to 10 mg/kg. For the same molecule, the “generation of cytotoxic T cells” value in series [8] (i.p.) is “suppressed the generation of cytotoxic T cells in a dose related manner”.

Source of the values: patent publication EP0366451A2, “The use of oxidized polyamines, especially NN'-Bis-(3-propionaldehyde)-1-4-diaminobutane (sperminedialdehyde) as immunosuppressive agents” (ORTHO PHARMACEUTICAL CORPORATION, priority 1988, dated 1990).
